Laboratory results as given in paper PMC12467246, “Characterization of the Anticholinesterase and Antioxidant Properties of Phytochemicals from Moringa oleifera as a Potential Treatment for Alzheimer’s Disease” (Biomedicines, 2025).
Read-outs that look alike come from different tables or passages of the source.

Key:
[1] = target: T1, human butyrylcholinesterase (hBuChE) (Homo sapiens, UniProt P06276); experiment: biochemical
T1 construct: purchased Sigma B4186

[2] = target: T2, butyrylcholinesterase from horse (equine) serum (esBuChE) (Equus caballus, UniProt P81908); experiment: biochemical
T2 construct: butyrylcholinesterase from horse (equine) serum (esBuChE); purchased Sigma C7512; host or cells: horse serum
T2 sequence (P81908 whole entry): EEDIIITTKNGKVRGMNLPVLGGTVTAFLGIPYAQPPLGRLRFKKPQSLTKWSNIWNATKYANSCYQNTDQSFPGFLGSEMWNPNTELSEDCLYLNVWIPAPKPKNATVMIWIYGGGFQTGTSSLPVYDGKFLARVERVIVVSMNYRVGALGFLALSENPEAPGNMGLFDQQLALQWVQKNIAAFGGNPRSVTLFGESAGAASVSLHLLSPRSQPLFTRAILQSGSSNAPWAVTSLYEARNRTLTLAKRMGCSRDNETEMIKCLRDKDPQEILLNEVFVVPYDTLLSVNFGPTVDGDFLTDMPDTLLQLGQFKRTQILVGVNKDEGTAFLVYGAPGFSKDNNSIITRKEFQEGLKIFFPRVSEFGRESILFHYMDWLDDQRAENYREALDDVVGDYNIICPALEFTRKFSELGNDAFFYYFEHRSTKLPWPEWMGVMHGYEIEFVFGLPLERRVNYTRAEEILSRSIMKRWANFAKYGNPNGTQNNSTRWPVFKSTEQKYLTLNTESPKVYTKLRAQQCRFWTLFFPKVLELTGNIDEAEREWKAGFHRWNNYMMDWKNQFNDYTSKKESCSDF

[3] = target: human acetylcholinesterase (hAChE) (Homo sapiens, UniProt P22303); experiment: biochemical
human acetylcholinesterase (hAChE), sequence (P22303 32-614): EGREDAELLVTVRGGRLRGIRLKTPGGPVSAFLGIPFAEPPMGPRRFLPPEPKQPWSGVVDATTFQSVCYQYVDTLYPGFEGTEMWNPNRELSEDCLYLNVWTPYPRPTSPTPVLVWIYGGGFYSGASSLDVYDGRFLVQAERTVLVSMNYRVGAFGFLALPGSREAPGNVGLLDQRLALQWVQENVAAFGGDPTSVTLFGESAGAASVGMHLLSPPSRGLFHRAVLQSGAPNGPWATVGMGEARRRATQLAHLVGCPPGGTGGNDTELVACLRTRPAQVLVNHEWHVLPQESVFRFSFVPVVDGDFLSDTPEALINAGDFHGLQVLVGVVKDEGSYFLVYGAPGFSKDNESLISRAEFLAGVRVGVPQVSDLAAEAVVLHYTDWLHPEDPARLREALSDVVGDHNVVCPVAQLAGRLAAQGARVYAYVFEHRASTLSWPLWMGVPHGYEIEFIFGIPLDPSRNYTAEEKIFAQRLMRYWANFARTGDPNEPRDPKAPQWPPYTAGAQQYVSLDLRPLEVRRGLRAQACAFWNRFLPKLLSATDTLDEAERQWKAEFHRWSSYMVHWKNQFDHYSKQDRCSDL

[4] = DPPH free radical-scavenging assay; settings: 37 °C, 40 min, 517 nm
[5] = Ferric reducing antioxidant power (FRAP) assay; settings: 700 nm
[6] = Lipid peroxidation inhibition (LPI) assay; set-up: species or system bovine; settings: sodium nitroprusside as pro-oxidant, 37 °C 2 h, MDA at 532 nm
[7] = Hydroxyl radical-scavenging assay; settings: Fenton reaction, 45 min 37 °C, 532 nm
[8] = ABTS radical-scavenging assay; settings: 5 min in the dark, 750 nm
[9] = Nitric oxide (NO) radical-scavenging assay; settings: sodium nitroprusside, 2.5 h 25 °C, Griess reagent, 540 nm
AChE [10] = settings: ref [55],[56],[57]; cited from earlier work
BuChE [11] = settings: ref [55],[56],[57]; cited from earlier work
AChE [12] = settings: rat brain homogenates, in vitro; ref [62]; cited from earlier work
BuChE [13] = settings: rat brain homogenates, in vitro; ref [62]; cited from earlier work
[14] = ref [62]; read-out: IC50 values, panel of antioxidant assays; cited from earlier work
hAChE = tested on: hAChE; set-up: method as in PMID 32746727; settings: ref [59]; read-out: IC50 against hAChE; cited from earlier work

T1 sequence (P06276 29-602): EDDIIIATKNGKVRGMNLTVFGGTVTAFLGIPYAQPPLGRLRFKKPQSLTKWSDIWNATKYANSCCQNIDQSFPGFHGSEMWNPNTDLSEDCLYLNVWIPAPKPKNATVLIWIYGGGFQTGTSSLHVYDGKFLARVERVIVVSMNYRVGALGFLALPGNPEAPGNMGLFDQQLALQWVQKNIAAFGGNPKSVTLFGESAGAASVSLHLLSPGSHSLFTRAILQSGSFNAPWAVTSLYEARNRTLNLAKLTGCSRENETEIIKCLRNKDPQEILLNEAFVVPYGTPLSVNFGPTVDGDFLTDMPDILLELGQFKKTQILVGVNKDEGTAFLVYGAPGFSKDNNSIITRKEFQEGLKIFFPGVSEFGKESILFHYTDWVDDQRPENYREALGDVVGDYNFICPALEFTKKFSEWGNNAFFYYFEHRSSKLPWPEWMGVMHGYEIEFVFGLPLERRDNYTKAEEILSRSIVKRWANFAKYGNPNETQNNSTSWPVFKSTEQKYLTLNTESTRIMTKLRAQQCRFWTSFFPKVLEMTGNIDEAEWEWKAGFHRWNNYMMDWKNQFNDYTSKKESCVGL

Structure (SMILES) | IC50 [1] [µM] | IC50 [2] [µM] | IC50 ([3]; read-out: Enzyme IC50 hAChE) [µM] | EC50 [4] [µM] | EC50 [5] [µM] | EC50 [6] [µM] | EC50 [7] [µM] | EC50 [8] [µM] | EC50 [9] [µM] | further results
CCN(CC)C(C)CN1c2ccccc2Sc2ccccc21 (stereo not drawn) [Ethopropazine, reference compound] | 13.8 ± 0.8 | 0.01 |  |  |  |  |  |  |  | 
O=c1c(O[C@@H]2O[C@H](CO)[C@@H](O)[C@H](O)[C@H]2O)c(-c2ccc(O)c(O)c2)oc2cc(O)cc(O)c12 [Quercetin 3-β-D-glucoside, quercetin 3-β-D-glucoside] | 931 ± 49 | > 1000 | 971 ± 157 | 224 ± 27 | 1780 ± 107 | 673 ± 165 | 55 ± 12 | 436 ± 32 | 261 ± 77 | 
O=C1O[C@H]([C@@H](O)CO)C(O)=C1O [L-Ascorbic acid, L-ascorbic acid, reference compound] |  |  |  |  |  | 182 ± 24 |  | 526 ± 110 | 720 ± 127 | 
O=C(C=Cc1ccc(O)c(O)c1)OC1C(O)CC(O)(C(=O)O)CC1O (stereo not drawn) [4-O-caffeoylquinic acid] |  |  | 782 ± 106 | 431 ± 28 | 1290 ± 45 | 207 ± 63 | 120 ± 30 | 382 ± 44 | 125 ± 30 | IC50 ([1]; read-out: Enzyme IC50 hBuChE): 770 ± 116 µM; IC50 ([2]; read-out: Enzyme IC50 esBuChE): 903 ± 139 µM
Cc1c(C)c2c(c(C)c1O)CC[C@@](C)(CCC[C@H](C)CCC[C@H](C)CCCC(C)C)O2 [α-Tocopherol, α-tocopherol, reference compound] |  |  |  | 369 ± 34 |  |  | 53 ± 15 | 414 ± 22 | 368 ± 34 | 
C[C@@H]1O[C@@H](OC[C@H]2O[C@@H](Oc3c(-c4ccc(O)c(O)c4)oc4cc(O)cc(O)c4c3=O)[C@H](O)[C@@H](O)[C@@H]2O)[C@H](O)[C@H](O)[C@H]1O [Rutin, quercetin-3-rutinoside] | 761 ± 106 | > 1000 |  | 305 ± 55 | 1940 ± 131 | 26 ± 3 | 90 ± 21 | 1720 ± 206 | 383 ± 87 | IC50 [3]: > 1000 µM; IC50 (AChE [12]): 219 µM; IC50 (BuChE [13]): 288 µM; IC50 [14]: 184 to 938 µM
O=C(O)c1cc(O)c(O)c(O)c1 [Gallic acid, reference compound] |  |  |  | 86 ± 15 | 1240 ± 49 | 372 ± 33 | 80 ± 23 | 53 ± 15 | 972 ± 107 | 
O=C(/C=C/c1ccc(O)c(O)c1)O[C@@H]1C[C@](O)(C(=O)O)C[C@@H](O)[C@H]1O [Chlorogenic acid] |  |  | > 1000 |  |  |  |  |  |  | IC50 ([1]; read-out: Enzyme IC50 hBuChE): > 1000 µM; IC50 ([2]; read-out: Enzyme IC50 esBuChE): > 1000 µM; IC50 (hAChE): 410 µM
